Laboratory results published in patent US9364471B2, “Compositions and methods of treating retinal disease” (ALDEYRA THERAPEUTICS, INC., priority 2005, dated 2016).

Legend:
[1] = NMR analysis of RAL reactions (Schiff base condensation and ring formation); format: physicochemical; details: Schiff base condensation with RAL, pure chloroform
[2] = tested on: light sensitivity of dark adapted rats; experiment: ERG analysis of dark adaptation, dose ranging protocol; format: in vivo, rat; details: i.p.
Procedure: Dark adaptation is the recovery of visual sensitivity following exposure to light. Dark adaptation has multiple components including both fast (neuronal) processes and slow (photochemical) process. Regeneration of visual pigment is related to the slow photochemical process. Dark adaptation rates are measured for several reasons. Night blindness results from a failure to dark adapt (loss of visual light sensitivity). It is possible to find a safe dose for night vision by measuring drug effects on dark adapted visual light sensitivity.
An electroretinogram (ERG) is used measure dark adaptation under normal vs. drug conditions. ERG is the measurement of the electric field potential emitted by retinal neurons during their response to an experimentally defined light stimulus. More specifically, ERG measures retinal field potentials at the cornea after a flash of light (e.g., 50 ms). Field strengths are 10^2 to 10^3 microvolts, originating in retinal cells.
ERG is a non-invasive measurement which can be performed on either living subjects (human or animal) or a hemisected eye in solution that has been removed surgically from a living animal. […]
The ERG measurement is taken after a specific duration of post-bleach dark recovery (e.g., 30 min) determined previously by kinetic analysis (see FIGS. 6a and 6b). […]

duration of the effect on vision ([2]; rat ERG)	Structure (SMILES)	tau (minutes) condense [1]	effect on ERG light sensitivity of dark adapted rats ([2]; dose ranging, FIG. 7)
–	CC(C)(O)c1nc2ccc(Cl)cc2cc1N [Compound 9]	320 min	–
decreases after 3 hours	CCOC(=O)c1cccc(N)c1 [Compound 6, tricaine methane sulfonate]	–	lowers light sensitivity of dark adapted rats in a dose dependent manner
